In brackets after ≈: the same amount, converted by molar mass.
How the values were obtained:
AlbASCTD = AlbASCTD (Klebsiella oxytoca, UniProt Q8KRS7); assay: Fluorescence quenching binding assay with AlbASCTD; settings: AlbASCTD 100 nM, n constrained to 1
Description: (§1) Fluorescence quenching measurements were performed by monitoring tryptophan fluorescence of AlbAS (20 nM), AlbAL (20 nM), AlbASNTD, and AlbASCTD (100 nM) on a FluoroMax 2 spectrometer from Horiba (Potsdam, Germany). The excitation wavelength was set to λexc = 280 nm. Emission spectra were recorded from λem = 290–450 nm with a scanning speed of 1 nm s^−1 and an integration time of 1 s. The excitation and emission slit widths were set to 8 and 4 nm, respectively. Proteins were solved in 50 mM sodium phosphate buffer with 150 mM NaCl and 0.01% DMSO at pH 6.8. All measurements were performed twice and the standard deviation is given for the Kd and the Hill factor n. Data evaluation was performed by integration of the emission band (318–410 nm for AlbAS, 316–412 nm for AlbAL, and 319–390 nm for AlbASNTD and AlbASCTD) for every titration step. The area under the curve (AUC) of the buffer blank (buffer with 0.01% DMSO) was subtracted from the measured titration data. The quenching factor was determined by subtraction of AUCs for each titration step from the AUC of the protein in the absence of ligand. For determination of the AlbAS– and AlbAL–albicidin Kd values, the data were fitted to Eq. (2).2 Y=Bmax[L]^n/Kdn+[L]^n where [L], n, and Bmax denote the total ligand concentration, the Hill coefficient, and the maximum binding capacity of the protein, respectively.

P. aeruginosa = assay: MIC assay, clinical isolates; format: cell-based; settings: Pseudomonas aeruginosa
Description: (§2) The MIC assay was performed by Antiinfectives Intelligence GmbH (Rheinbach, Germany) using internationally standardized protocols and employing clinical isolates of K. oxytoca, K. pneumoniae, R. ornithologica, P. aeruginosa, A. baumannii and E. cloacae.

Enterobacter cloacae = assay: MIC assay, clinical isolates; format: cell-based
Description: as §2

K. oxytoca = assay: MIC assay, clinical isolates; format: cell-based; settings: Klebsiella oxytoca; four K. oxytoca strains
Description: as §2

Klebsiella pneumoniae = assay: MIC assay, clinical isolates; format: cell-based; settings: seven Klebsiella pneumoniae strains
Description: as §2

R. ornithinolytica = assay: MIC assay, clinical isolates; format: cell-based
Description: as §2

Acinetobacter baumanii = assay: MIC assay, clinical isolates; format: cell-based; settings: Acinetobacter baumannii
Description: as §2

AlbASNTD = AlbASNTD (Klebsiella oxytoca, UniProt Q8KRS7); assay: Fluorescence quenching binding assay with AlbASNTD; settings: AlbASNTD 100 nM, n constrained to 1
Description: as §1

[1] = tested on: Pseudomonas aeruginosa DSM 117; parameters: method as in PMID 17074789, PMID 25504839; settings: cited from earlier work
AlbAL = AlbAL (Klebsiella oxytoca, UniProt A0A9P0U153); assay: Fluorescence quenching binding assay with AlbAL
Description: as §1

AlbAS = molecular target: T1, AlbAS (Klebsiella oxytoca, UniProt Q8KRS7); assay: CD-detected thermal unfolding of AlbAS; format: binding; settings: 1.5-fold ligand, 20 µM protein; AlbAS alone 66 °C
T1 sequence (Q8KRS7 1-221): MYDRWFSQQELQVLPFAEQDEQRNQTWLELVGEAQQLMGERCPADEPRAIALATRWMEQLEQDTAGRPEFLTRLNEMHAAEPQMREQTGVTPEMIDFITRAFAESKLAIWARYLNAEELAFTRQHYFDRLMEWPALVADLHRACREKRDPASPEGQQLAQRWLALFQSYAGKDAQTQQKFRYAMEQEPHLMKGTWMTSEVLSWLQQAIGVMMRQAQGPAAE
Description: For determination of the melting temperature and information on protein-ligand stability, CD measurements were performed on a J-815 CD spectrometer (Jasco, Groß-Umstadt, Germany). Protein samples (2.0 mM for AlbAS and 0.2 mM for AlbAL) were saturated with 1.5-fold albicidin and diluted to a protein concentration of 20 μM in order to ensure a final DMSO content of only 0.05% for AlbAS and 0.5% for AlbAL. A volume of 250 μL of the reaction mixture was transferred into a quartz cuvette with 1 mm path length. Six far-UV spectra were accumulated in a wavelength range of 195–300 nm (203–300 nm for AlbAL) at three different temperatures (10, 21, and 90 °C) with a scanning speed of 50 nm s^−1. For evaluation of the spectra the measured buffer blank (50 mM sodium hydrogen phosphate and 100 mM NaCl, pH 6.8) was subtracted from the averaged spectra. The temperature curves were recorded from 10–90 °C in 0.5 °C min^−1 steps while monitoring the ellipticity at 215 nm (218 nm for ALbAL). […] The melting temperatures of AlbAS, AlbAS–albicidin, AlbAS–compound 5, AlbAS–compound 7, AlbAL, and AlbAL–albicidin were determined by nonlinear regression of the measured data using Eq. (1). […] The Tm was thus determined by fitting the second transition representing the stabilized domain/species. […]

Chain of AlbAL (A0A9P0U153 entry or part of it): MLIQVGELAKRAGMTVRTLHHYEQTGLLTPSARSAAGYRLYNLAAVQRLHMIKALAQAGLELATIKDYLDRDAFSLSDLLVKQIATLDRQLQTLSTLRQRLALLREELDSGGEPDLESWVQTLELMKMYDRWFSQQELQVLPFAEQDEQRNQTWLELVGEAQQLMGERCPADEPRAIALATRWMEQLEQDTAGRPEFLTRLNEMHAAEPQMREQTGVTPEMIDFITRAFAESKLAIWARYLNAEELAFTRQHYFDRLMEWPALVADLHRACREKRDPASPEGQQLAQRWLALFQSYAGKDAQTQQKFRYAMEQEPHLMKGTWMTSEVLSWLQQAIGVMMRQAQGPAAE

Question: Which results are given for `COc1c(NC(=O)c2ccc(NC(=O)c3ccc(NC(=O)[C@H](CC#N)NC(=O)c4ccc(NC(=O)/C(C)=C/c5ccc(O)cc5)cc4)cc3)c(OC)c2O)ccc(C(=O)O)c1O` [albicidin]?
Answer: Kd (AlbASCTD): 600 ± 100 nM; MIC (P. aeruginosa): ≥ 64 µg/mL; MIC (Enterobacter cloacae): ≥ 64 µg/mL; MIC (K. oxytoca): ≥ 64 µg/mL; MIC (Klebsiella pneumoniae): ≥ 64 µg/mL; MIC (R. ornithinolytica): ≥ 64 µg/mL; MIC (Acinetobacter baumanii): ≥ 64 µg/mL; Kd (AlbASNTD): 3400 ± 200 nM; MIC [1]: 1.0 µg/mL (≈ 1.19 µM); Kd (AlbAL): 7.4 ± 0.9 nM; Hill coefficient, n (AlbAL; AlbAL 20 nM, fluorescence quenching): 2.0 ± 0.2; melting temperature Tm of AlbAS upon ligand binding (AlbAS): 81 °C

From publication PMC6078987, “Molecular insights into antibiotic resistance - how a binding protein traps albicidin” (Nature Communications, 2018)
